Holding throughout (format): cell-based
One assay addresses T1, S1P5 (Homo sapiens, UniProt Q9H228).
T1 construct: expressed in transfected cells
Kind of assay: Calcium mobilization assay, CHO cells expressing S1P5. The text has this: The human S1P5 (GI: 30171332 or GenBank™ accession number AY262689, TREMBL: Q9H228) is cloned by a PCR based method. Lung and spleen cDNA (marathon cDNA) is obtained from BD Biosciences Chlontech (BD Biosciences Chlontech, Palo Alto, Calif. 94303, USA); genomic DNA is isolated from HeLa cells using standard procedures. Following oligonucleotides are used for the PCR reaction: forward primer CACCATGGAGTCGGGGCTGCTGCG (−4 to 20, GenBank™ accession number AY262689) and reverse primer 5′-TCAGTCTGCAGCCGGTTCTGATACCAGAGTC (1197 to 1131, AY262689), the initiation of the translation (ATG) and the stop codon are underlined. […] The amplified product of around 1100 bp is analyzed by standard agarose gel-electrophoresis. […]
(§1) CHO cells are plated in black Costar plate (96 or 384 well, 50,000 cells or 12,500 cells, respectively) in a MEM with FCS and cultured for 20-24 h at 37° C. in a CO2 incubator. […] After measuring the baseline for 40 sec, the agonist in HBSS is added and the fluorescence is measured at intervals of 2 sec for 3 to 5 min. […]
Background: Calcium flux is commonly read through the fluorescence of an indicator in the cells.

The target in another assay is T2, S1P1 (Homo sapiens, UniProt P21453).
T2 construct: expressed in transfected cells
Kind of assay: Calcium mobilization assay, CHO cells expressing S1P1.
Excerpt: (§2) Human S1P1 (GenBank™ accession number M31210) and S1P3 (GenBank™ accession number X83864) cDNA containing the myc sequence in front to the human S1P1 and S1P3 sequences are inserted in the pcDNA 3.1 vector. The vectors are sequenced to completion to confirm the correctness of the construct. The human S1P2 (GI: 4090955, TREMBL: 0195136) is cloned by a PCR based method. Lung cDNA (marathon cDNA) is obtained (BD Biosciences Chontech, Palo Alto, Calif. 94303, USA). […] The amplified product of around 1100 bp is analyzed by standard agarose gel-electrophoresis. […]
as §1
(§3) The compounds mentioned in this application are tested for specificity, e.g. the activity they have in the parental cell line prior transformation with the S1P4 cDNA and for selectivity on CHO cells lines transformed with the S1P1, S1P2, S1P3, and S1P5. […] For example, S1P4 specific and selective compounds may have an EC50 (apparent EC50) measured at S1P4 that is 10×, preferably 100× lower that that measured in wild type CHO cells or In cell expressing any of the other four S1P receptors.

A further assay concerns the target T3, S1P2 (Homo sapiens, UniProt O95136).
T3 construct: expressed in transfected cells
Kind of assay: Calcium mobilization assay, CHO cells expressing S1P2.
Excerpt: as §2, §1, §3

In the next assay the target is T4, S1P3 (Homo sapiens, UniProt Q99500).
T4 construct: expressed in transfected cells
The assay can be described thus: Calcium mobilization assay, CHO cells expressing S1P3.
Excerpt: as §2, §1, §3

Structures are written as SMILES.

T4 sequence (Q99500 whole entry): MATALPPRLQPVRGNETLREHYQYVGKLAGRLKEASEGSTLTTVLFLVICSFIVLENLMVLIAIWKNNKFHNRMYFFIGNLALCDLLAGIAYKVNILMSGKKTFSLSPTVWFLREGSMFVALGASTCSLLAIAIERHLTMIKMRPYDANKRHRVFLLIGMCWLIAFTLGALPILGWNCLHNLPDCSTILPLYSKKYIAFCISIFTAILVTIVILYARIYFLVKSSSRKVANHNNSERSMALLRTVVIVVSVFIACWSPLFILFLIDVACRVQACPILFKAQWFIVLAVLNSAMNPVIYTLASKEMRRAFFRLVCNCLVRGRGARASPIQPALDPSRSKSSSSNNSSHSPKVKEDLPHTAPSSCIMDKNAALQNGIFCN
T1 sequence (Q9H228 whole entry): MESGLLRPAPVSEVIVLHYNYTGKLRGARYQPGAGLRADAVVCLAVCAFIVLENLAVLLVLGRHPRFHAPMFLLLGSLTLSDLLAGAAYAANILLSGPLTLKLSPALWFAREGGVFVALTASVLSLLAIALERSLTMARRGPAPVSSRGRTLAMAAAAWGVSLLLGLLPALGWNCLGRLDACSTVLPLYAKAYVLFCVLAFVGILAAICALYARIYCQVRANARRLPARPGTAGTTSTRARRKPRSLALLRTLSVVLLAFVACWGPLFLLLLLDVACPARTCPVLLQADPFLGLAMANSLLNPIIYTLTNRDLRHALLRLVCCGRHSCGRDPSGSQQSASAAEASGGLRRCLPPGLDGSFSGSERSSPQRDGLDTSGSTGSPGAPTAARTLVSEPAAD
T3 sequence (O95136 whole entry): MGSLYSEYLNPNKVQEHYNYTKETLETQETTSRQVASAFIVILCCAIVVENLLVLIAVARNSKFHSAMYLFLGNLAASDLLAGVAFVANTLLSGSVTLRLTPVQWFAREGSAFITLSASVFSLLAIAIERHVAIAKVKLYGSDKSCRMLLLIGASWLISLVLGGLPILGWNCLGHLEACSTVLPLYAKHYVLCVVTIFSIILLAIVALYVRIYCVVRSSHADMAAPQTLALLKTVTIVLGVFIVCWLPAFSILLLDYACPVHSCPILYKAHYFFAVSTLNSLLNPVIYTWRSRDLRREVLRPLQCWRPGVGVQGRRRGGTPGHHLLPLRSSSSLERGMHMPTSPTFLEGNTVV
T2 sequence (P21453 whole entry): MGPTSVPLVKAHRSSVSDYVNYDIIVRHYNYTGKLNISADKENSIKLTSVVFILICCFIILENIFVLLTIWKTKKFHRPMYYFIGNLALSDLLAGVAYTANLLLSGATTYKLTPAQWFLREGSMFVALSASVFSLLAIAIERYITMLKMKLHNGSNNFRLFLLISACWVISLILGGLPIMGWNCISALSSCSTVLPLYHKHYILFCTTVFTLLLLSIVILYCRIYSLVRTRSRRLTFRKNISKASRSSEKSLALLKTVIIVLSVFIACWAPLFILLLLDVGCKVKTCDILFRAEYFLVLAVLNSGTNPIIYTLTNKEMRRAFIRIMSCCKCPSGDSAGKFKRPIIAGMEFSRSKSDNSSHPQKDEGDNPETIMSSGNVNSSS

In the case of `NC(CNC(=O)c1cc2c(-c3ccccc3Cc3ccccc3)cccc2[nH]1)C(=O)O` (stereo not shown) [Example 2], the 50% effective concentration (EC50) (in general, the concentration at which the effect is half-maximal) on S1P5 is 2.4 µM; at S1P1, > 6 µM; on S1P2, > 6 µM; on S1P3, > 6 µM.

The values are drawn from patent US7754896B2, “Indol-alanine derivatives as selective S1P4-agonists” (Novartis AG, priority 2004, dated 2010).
